Here are results for nine compounds from patent US5721103A, “Trienoic retinoid compounds and methods” (Ligand Pharmaceuticals Incorporated, priority 1995, dated 1998).

Molecules are shown by their SMILES.

The assay has as its system RARs and RXRs. Put plainly: Co-transfection assay, RAR and RXR receptors taken together. The assay is classed as cell-based. To be noted: for activity on the RARs or RXRs (in words): any of the RARs or RXRs; for RAR activity (in words): RARs. Here is the method:
Utilizing the "cis-trans" or "co-transfection" assay described by Evans et al., Science, 240:889-95 (May 13, 1988), the disclosure of which is herein incorporated by reference, the retinoid compounds of the present invention were tested and found to have strong, specific activity as either selective RAR agonists, selective RXR agonists, or as pan-agonist activators of both RAR and RXR receptors. This assay is described in further detail in U.S. Pat. Nos. 4,981,784 and 5,071,773, the disclosures of which are incorporated herein by reference.
In the co-transfection assay, a cloned cDNA for an IR (e.g., human RARα, RARβ, RXRγ) under the control of a constitutive promoter (e.g., the SV 40 promoter) is introduced by transfection (a procedure to induce cells to take up foreign genes) into a background cell substantially devoid of endogenous IRs. This introduced gene directs the recipient cells to make the IR protein of interest. A second gene is also introduced (co-transfected) into the same cells in conjunction with the IR gene. This second gene, comprising the cDNA for a reporter protein, such as firefly luciferase (LUC), is controlled by an appropriate hormone responsive promoter containing a hormone response element (HRE). This reporter plasmid functions as a reporter for the transcription-modulating activity of the target IR. Thus, the reporter acts as a surrogate for the products (mRNA then protein) normally expressed by a gene under control of the target receptor and its native hormone.
The co-transfection assay can detect small molecule agonists or antagonists of target IRs. Exposing the transfected cells to an agonist ligand compound increases reporter activity in the transfected cells. This activity can be conveniently measured, e.g., by increasing luciferase production, which reflects compound-dependent, IR-mediated increases in reporter transcription. […] . Increasing concentrations of a suspected antagonist will decrease the reporter signal (e.g., luciferase production). The co-transfection assay is therefore useful to detect both agonists and antagonists of specific IRs. Furthermore, it determines not only whether a compound interacts with a particular IR, but whether this interaction mimics (agonizes) or blocks (antagonizes) the effects of the native regulatory molecules on target gene expression, as well as the specificity and strength of this interaction.
To determine RAR and/or RXR agonist activity of the compounds of the present invention, the CV-1 cells were transiently transfected by calcium phosphate coprecipitation according to the procedure of Berger et al., 41 J. Steroid Biochem. Mol. Biol., 733 (1992) with the following receptor expressing plasmids: pRShRARα: Giguere et at., 330 Nature, 624 (1987); pRShRARβ and pRShRARγ, Ishikawa et al., 4 Mol. Endocrin., 837 (1990); pRShRXRα, Mangelsdorf et at., 345 Nature, 224 (1990); and pRSmRXRβ and pRSmRXRγ, Mangelsdorf et al., 6 Genes & Devel., 329 (1992), the disclosures of which are herein incorporated by reference. Each of these receptor expressing plasmids was co-transfected at a concentration of 5 ng/well, along with a basal reporter plasmid at 100 ng/well, the internal control plasmid pRS-β-Gal at 50 ng/well and filler DNA, pGEM at 45 ng/well.

On to `COc1ccc(/C(C)=C/C=C/C(C)=C/C(=O)O)cc1OC` [A, (2E,4E,6E)-3-methyl-7-(3,4-dimethoxyphenyl)octa-2,4,6-trienoic acid, reference compound], for which the “activity on the RARs or RXRs (in words)” value is “no, or virtually no, activity”.

Take `COc1ccc(/C(C)=C/C=C/C(C)=C/C(=O)O)cc1` [B, (2E,4E,6E)-3-methyl-7-(4-methoxyphenyl)octa-2,4,6-trienoic acid, reference compound]: the “activity on the RARs or RXRs (in words)” value is “no, or virtually no, activity”.

Consider `COc1cc(C)c(/C=C/C=C/C=C(\C)C(=O)O)c(C)c1C` [C, (2E,4E,6E)-2-methyl-7-(2,3,6-trimethyl-4-methoxyphenyl)hepta-2,4,6-trienoic acid, reference compound], for which the “activity on the RARs or RXRs (in words)” value is given as “no, or virtually no, activity”.

With `CCC/C(=C/C=C/C(C)=C/C(=O)O)c1cc(C(C)(C)C)cc(C(C)(C)C)c1` [Compound 28, (2E, 4E, 6Z)-7-(3,5-Di-t-butylphenyl)-3-methyldeca-2,4,6-trienoic acid], the “RXR activity (in words)” value (RXRs) is “very potent and selective RXR active compound”.

`CC(/C=C/C=C1\CCOc2c1cc(C(C)(C)C)cc2C(C)(C)C)=C\C(=O)O` [Compound 39, (2E,4E,6E)-6-(6,8,-Di-t-butylchroman-4-ylidene)-3-methylhexa-2,4,6-trienoicacid]: the “RAR activity (in words)” value is “extremely potent RAR active compounds”.

Take `CC(/C=C/C=C(\C)c1cc(C(F)(F)F)cc(C(F)(F)F)c1)=C\C(=O)O` [Compound 41, (2E, 4E, 6E)-7-(3,5-Di-trifluoromethylphenyl)-3-methylocta-2,4,6-trienoic acid]: the “RAR activity (in words)” value is reported as “extremely potent RAR active compounds”.

`C/C(=C/C=C/C(C)=C/C(=O)O)c1cc(C(C)C)cc(C(C)C)c1` [Compound 43, (2E, 4E, 6Z)-7-(3,5-Di-isopropylphenyl)-3-methylocta-2,4,6-trienoic acid]: the “potency profile in comparison to 9-cis retinoic acid (in words)” value (versus 9-cis, pan-agonist) is reported as “superior potency profile”.

For the compound `COc1c(C(C)(C)C)cc(/C(C)=C/C=C/C(C)=C/C(=O)O)cc1C(C)(C)C` [Compound 47, (2E, 4E, 6E) -3-Methyl-7-(3,5-di-t-butyl-4-methoxyphenyl)octa-2,4,6-trienoic acid], the “RAR activity (in words)” value is given as “extremely potent RAR active compounds”. Besides, the “selectivity among RARs (in words)” value (RARβ and RARγ) is “selectivity on RARβ and RARγ”.

As to `COC(/C=C/C=C(\C)c1ccc(C(C)(C)C)cc1)=C/C(=O)O` [D, (2E,4E,6E)-3-methoxy-7-(4-t-butylphenyl)octa-2,4,6-trienoic acid, reference compound], the “activity on the RARs or RXRs (in words)” value is “no, or virtually no, activity”.
